Experimental data: US11440906B2, “Biguanide derivatives and their rearrangement products for use in the treatment of cancer” (CENTRE NATIONAL DE LA RECHERCHE SCIENTIFIQUE, priority 2017, dated 2022)
Like-named read-outs stand apart in the source and are kept apart here.

System: A375 Sensitive cells
Assay: Viability test, trypan blue exclusion, A375 Sensitive cells
Format: cell-based, human
Details: Homo sapiens, A-375, viable cells as percentage of DMSO control
Text: Different melanoma cell lines were purchased from the American Tissue Culture Collection: A375 and WM9 cells are mutated on B-Raf, CDKN2A and PTEN proteins; SKmel28 cells are mutated on B-Raf and P53 proteins; 1205Lu cells are mutated on B-Raf and PTEN proteins; G-361 cells are mutated on B-Raf and CDKN2A proteins; C8161 cells are mutated on B-Raf and K-Ras proteins; WM3912 cells are mutated on B-Raf and CDKN2A proteins; MeWo cells are mutated on P53 and CDKN2A proteins; WM3918 presents no mutations on characteristic proteins.
For trypan blue staining, […] of cells (melanoma and normal human cells) were aseptically transferred to a 1.5 mL clear Eppendorf tube and incubated for 3 min at room temperature with an equal volume of 0.4% trypan blue solution. Viable cells were counted and the results are expressed as the percentage of the value of control cells. All the experiments are performed 3 times in triplicate.
A375 Sensitive cells were treated with different concentrations of the synthesized molecules (5.0 μM or 10 μM) for different times (24 hr or 48 hr) or with DMSO (Control) for 12 or 48 hr. At the end of the stimulation, viable cells were counted using the trypan blue dye exclusion method. The results are normalized as percentages compare to the control.
A375 Sensitive cells were treated with 5 μM of CRO15 for different times (2 hr, 4 hr, 6 hr, 8 hr, 12 hr, 24 hr or 48 hr) or with 5 μM of PLX4032 (B-Raf inhibitor) for 48 hr or with DMSO (Control) for 48 hr. At the end of stimulation, viable cells were counted using the trypan blue dye exclusion method. The results are normalized as percentages compare to the control and data means±SEM of three independent experiments performed in triplicate *p<0.05; **p<0.01; ***p<0.001.
A375 Sensitive cells were treated with different concentrations of CRO15 (0.5 μM, 2.5 μM, 5.0 μM, 7.5 μM, 50 μM) for 48 hr or with 5 μM of PLX4032 (B-Raf inhibitor) for 48 hr or with DMSO (Control) for 48 hr. At the end of the stimulation, viable cells were counted using the trypan blue dye exclusion method. The results are normalized as percentages compare to the control and data means±SEM of three independent experiments performed in triplicate *p<0.05; **p<0.01; ***p<0.001.
A375 sensitive and resistant melanoma cells were treated with 5 μM of CRO15 for 48 hr or with 5 μM of PLX4032 for 48 hr or with DMSO (Control). At 48 hours, viable cells were counted using the trypan blue dye exclusion method. The results are normalized as percentages compare to the control and data means±SEM of three independent experiments performed in triplicate *p<0.05; **p<0.01; ***p<0.001.

[1] = 24 h, read-out: Viab A375 5 μM/ 24 h
[2] = 48 h, read-out: Viab A375 5 μM/ 48 h
[3] = 24 h, read-out: Viab A375 10 μM/ 24 h
[4] = 48 h, read-out: Viab A375 10 μM/ 48 h

Compound | viability at 5 µM [1] [%] | viability at 5 µM [2] [%] | viability at 10 µM [3] [%] | viability at 10 µM [4] [%]
CSc1ccccc1Nc1nc(N)nc(C(Cl)(Cl)Cl)n1 [MTF 316, N2-(2-(methylthio)phenyl)-6-(trichloromethyl)-1,3,5-triazine-2,4-diamine] | 124 | 69.6 | 104 | 48.2
CSc1ccccc1Nc1nc(N)nc(C(Cl)Cl)n1 [MTF 317, 6-(dichloromethyl)-N2-(2-(methylthio)phenyl)-1,3,5-triazine-2,4-diamine] | 106 | 58.7 | 109 | 70
COc1cccc(-c2nc(N)nc(Nc3ccccc3SSc3ccccc3Nc3nc(N)nc(-c4cccc(OC)c4)n3)n2)c1 [MTF 318] | 74.1 | 21.6 | 20.5 | 6.3
Nc1nc(Nc2ccccc2SSc2ccccc2Nc2nc(N)nc(-c3cccc(F)c3)n2)nc(-c2cccc(F)c2)n1 [MTF 320] | 18.3 | 11.5 | 10.8 | 8.5
Nc1nc(Nc2ccccc2SSc2ccccc2Nc2nc(N)nc(-c3ccccn3)n2)nc(-c2ccccn2)n1 [MTF 321, N2,N2′-(disulfanediylbis(2,1-phenylene))bis(6-(pyridin-2-yl)-1,3,5-triazine-2,4-diamine)] | 59.7 | 34.5 | 53.8 | 32.1
Nc1nc(Nc2ccccc2SSc2ccccc2Nc2nc(N)nc(-c3cccc(Cl)c3)n2)nc(-c2cccc(Cl)c2)n1 [MTF 322, N2,N2′-(disulfanediylbis(2,1-phenylene))bis(6-(3-chlorophenyl)-1,3,5-triazine-2,4-diamine)] | 57.4 | 12.1 | 26.9 | 5.7
Nc1nc(Nc2ccccc2SSc2ccccc2Nc2nc(N)nc(-c3cccc(Br)c3)n2)nc(-c2cccc(Br)c2)n1 [MTF 323, N2,N2′-(disulfanediylbis(2,1-phenylene))bis(6-(3-bromophenyl)-1,3,5-triazine-2,4-diamine)] | 34.6 | 23.5 | 47.4 | 8.3
COc1ccc(-c2nc(N)nc(Nc3ccccc3SSc3ccccc3Nc3nc(N)nc(-c4ccc(OC)cc4)n3)n2)cc1 [MTF 324, N2,N2′-(disulfanediylbis(2,1-phenylene))bis(6-(4-methoxyphenyl)-1,3,5-triazine-2,4-diamine)] | 44.1 | 13.3 | 12.9 | 8.2
N#Cc1cccc(-c2nc(N)nc(Nc3ccccc3SSc3ccccc3Nc3nc(N)nc(-c4cccc(C#N)c4)n3)n2)c1 [MTF 325, 3,3′-(((disulfanediylbis(2,1-phenylene))bis(azanediyl))bis(6-amino-1,3,5-triazine-4,2-diyl))dibenzonitrile] | 58.1 | 30.9 | 71 | 29.7
Nc1nc(Nc2ccccc2SSc2ccccc2Nc2nc(N)nc(-c3ccccc3)n2)nc(-c2ccccc2)n1 [MTF 326, N2,N2′-(disulfanediylbis(2,1-phenylene))bis(6-phenyl-1,3,5-triazine-2,4-diamine)] | 27.4 | 27.9 | 12.9 | 6.7
Nc1nc(Nc2ccccc2SSc2ccccc2Nc2nc(N)nc(-c3ccc(Cl)cc3)n2)nc(-c2ccc(Cl)cc2)n1 [MTF 327, N2,N2′-(disulfanediylbis(2,1-phenylene))bis(6-(4-chlorophenyl)-1,3,5-triazine-2,4-diamine)] | 19.4 | 14.5 | 23.7 | 14.5
Nc1nc(Nc2ccccc2SSc2ccccc2Nc2nc(N)nc(-c3ccc(I)cc3)n2)nc(-c2ccc(I)cc2)n1 [MTF 328, N2,N2′-(disulfanediylbis(2,1-phenylene))bis(6-(4-iodophenyl)-1,3,5-triazine-2,4-diamine)] | 50 | 9.4 | 27.8 | 3.4
Nc1nc(Nc2ccccc2SSc2ccccc2Nc2nc(N)nc(-c3ccncc3)n2)nc(-c2ccncc2)n1 [MTF 329, N2,N2′-(disulfanediylbis(2,1-phenylene))bis(6-(pyridin-4-yl)-1,3,5-triazine-2,4-diamine)] | 96.2 | 69.7 | 74.2 | 22.5
Nc1nc(Nc2ccccc2SSc2ccccc2Nc2nc(N)nc(-c3cccnc3)n2)nc(-c2cccnc2)n1 [MTF 330, N2,N2′-(disulfanediylbis(2,1-phenylene))bis(6-(pyridin-3-yl)-1,3,5-triazine-2,4-diamine)] | 123 | 73.9 | 60.1 | 41.6
Nc1nc(Nc2ccccc2O)nc(-c2cccc(Br)c2)n1 [MTF 331, 2-((4-amino-6-(3-bromophenyl)-1,3,5-triazin-2-yl)amino)phenol] | 104 | 82.9 | 151 | 77.4
Nc1nc(Nc2ccccc2O)nc(-c2cccc(Cl)c2)n1 [MTF 332, 2-((4-amino-6-(3-chlorophenyl)-1,3,5-triazin-2-yl)amino)phenol] | 122 | 87.6 | 104 | 65.4
Nc1nc(Cc2ccccc2)nc(Nc2ccccc2SSc2ccccc2Nc2nc(N)nc(Cc3ccccc3)n2)n1 [MTF 333] | 94.9 | 35.4 | 28.7 | 24.1
COc1cccc(C(=N)NC(=N)Nc2nc3ccccc3s2)c1 [MTF 342, N—(N-(benzo[d]thiazol-2-yl)carbamimidoyl)-3-methoxybenzimidamide] | 48.6 | 8.6 | 32.2 | 8.6
N=C(NC(=N)c1cccc(C(F)(F)F)c1)Nc1nc2ccccc2s1 [MTF 343, N—(N-(benzo[d]thiazol-2-yl)carbamimidoyl)-3-(trifluoromethyl)benzimidamide] | 67.7 | 52.9 | 34.8 | 24.1
CCOc1cccc(C(=N)NC(=N)Nc2nc3ccccc3s2)c1 [MTF 344, N—(N-(benzo[d]thiazol-2-yl)carbamimidoyl)-3-ethoxybenzimidamide] | 84.3 | 26.1 | 38.7 | 26.1
N=C(NC(=N)c1cnccn1)Nc1nc2ccccc2s1 [MTF 345, N—(N-(benzo[d]thiazol-2-yl)carbamimidoyl)pyrazine-2-carboximidamide] | 25.9 | 1.8 | 17.1 | 1
N=C(NC(=N)c1cccc(F)c1)Nc1nc2ccccc2s1 [MTF 346, N—(N-(benzo[d]thiazol-2-yl)carbamimidoyl)-3-fluorobenzimidamide] | 66.9 | 10.6 | 43.2 | 12.9
N#Cc1cccc(C(=N)NC(=N)Nc2nc3ccccc3s2)c1 [MTF 347, N—(N-(benzo[d]thiazol-2-yl)carbamimidoyl)-3-cyanobenzimidamide] | 26.9 | 6.6 | 27.6 | 6.8
Nc1nc(Nc2ccccc2SSc2ccccc2Nc2nc(N)nc(-c3cnccn3)n2)nc(-c2cnccn2)n1 [MTF 348, N2,N2′-(disulfanediylbis(2,1-phenylene))bis(6-(pyrazin-2-yl)-1,3,5-triazine-2,4-diamine)] | 102 | 79.6 | 110 | 35.8
